Measurements published in patent US20230382904A1, “SUBSTITUTED 4-([1,2,4]TRIAZOLO[1,5-a]PYRIDIN-6-YL)THIOPHENE-2-CARBOXAMIDE DERIVATIVES AND USE THEREOF” (The Johns Hopkins University, priority 2020, published 2023).

Columns and labels:
DLK = DLK (Homo sapiens (Human), UniProt Q12852); assay: DLK biochemical assay (TR-FRET, MKK7 phosphorylation)
Summary of the method: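 Catalytic-domain DLK (10 nM) phosphorylates His-MKK7 (15 nM) with 60 μM ATP, 90 min at RT, in pH 7.5 HEPES buffer. Phospho-T275/S277 read by TR-FRET (Eu anti-phospho donor, XL665 anti-His acceptor) after 16 h detection, at 37° C. in 1536 or 4° C. in 384 format.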

LZK = LZK (Homo sapiens (Human), UniProt O43283); assay: LZK biochemical assay (TR-FRET, MKK7 phosphorylation)
Summary of the method: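 Catalytic-domain LZK (10 nM) phosphorylated His-MKK7 (15 nM) with 15 μM ATP for 90 min at RT. Phospho-T275/S277 detected by Eu-anti-phospho-MKK7/XL665-anti-His TR-FRET after 16 h at 32° C, using the 665/Eu ratio. Buffer: 50 mM Hepes pH 7.5, 10 mM MgCl2, 1 mM DTT.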

DLK, sequence (Q12852 1-520): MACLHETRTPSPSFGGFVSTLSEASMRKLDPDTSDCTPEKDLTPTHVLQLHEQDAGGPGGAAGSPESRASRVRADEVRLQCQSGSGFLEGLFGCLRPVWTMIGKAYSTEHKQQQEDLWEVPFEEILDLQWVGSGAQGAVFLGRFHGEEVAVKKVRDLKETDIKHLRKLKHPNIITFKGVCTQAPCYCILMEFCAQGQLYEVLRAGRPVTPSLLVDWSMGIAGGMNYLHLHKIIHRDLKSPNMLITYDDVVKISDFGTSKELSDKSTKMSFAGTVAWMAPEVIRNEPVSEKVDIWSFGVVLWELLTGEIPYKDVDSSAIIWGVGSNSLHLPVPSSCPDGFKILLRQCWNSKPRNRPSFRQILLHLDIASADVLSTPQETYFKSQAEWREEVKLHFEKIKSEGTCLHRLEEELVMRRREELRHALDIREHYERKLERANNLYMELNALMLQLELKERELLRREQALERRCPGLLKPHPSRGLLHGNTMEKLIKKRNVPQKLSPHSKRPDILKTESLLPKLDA
LZK, sequence (O43283 168-409): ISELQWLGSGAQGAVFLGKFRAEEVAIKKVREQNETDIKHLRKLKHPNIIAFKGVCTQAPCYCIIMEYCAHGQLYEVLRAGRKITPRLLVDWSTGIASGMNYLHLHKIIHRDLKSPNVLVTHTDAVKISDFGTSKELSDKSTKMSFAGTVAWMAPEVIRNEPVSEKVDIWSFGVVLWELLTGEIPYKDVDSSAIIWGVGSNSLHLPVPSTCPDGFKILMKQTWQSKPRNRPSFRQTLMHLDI

Nc1nc2ccc(-c3csc(C(=O)NC(CO)c4ccc(F)cc4)c3)cn2n1 (stereo not shown) [Compound 337]
IC50 (DLK): 480 nM
IC50 (LZK): 1400 nM

CC[C@H](NC(=O)c1cc(-c2cc(C(=O)NC(C)C)c3nc(N)nn3c2)cs1)c1ccccc1 [Compound 76]
IC50 (DLK): 5.15 nM
IC50 (LZK): 87 nM

Nc1nc2c(C(=O)NC3CNC3)cc(-c3csc(C(=O)NCc4ccc(F)cc4)c3)cn2n1 [Compound 113]
IC50 (DLK): 220 nM
IC50 (LZK): 660 nM

COc1cccc(CCNC(=O)c2cc(-c3ccc4nc(N)nn4c3)cs2)c1 [Compound 282]
IC50 (DLK): 750 nM
IC50 (LZK): > 30000 nM

CN1CCCC(NC(=O)c2cc(-c3ccc4nc(N)nn4c3)cs2)C1 (stereo not shown) [Compound 181]
IC50 (DLK): 3500 nM
IC50 (LZK): > 30000 nM

C[C@H](NC(=O)c1cc(-c2cc(C(F)(F)F)c3nc(N)nn3c2)cs1)c1ccccc1 [Compound 376]
IC50 (DLK): 260 nM
IC50 (LZK): 4900 nM

Nc1nc2ccc(-c3csc(C(=O)NC4CCc5ccccc54)c3)cn2n1 (stereo not shown) [Compound 307]
IC50 (DLK): 150 nM
IC50 (LZK): 4500 nM

Nc1nc2cc(-c3csc(C(=O)NCc4ccc(F)cc4)c3)cc(C(=O)O)n2n1 [Compound 370]
IC50 (DLK): 4400 nM
IC50 (LZK): > 30000 nM

Nc1nc2c(C(=O)NCC(F)(F)F)cc(-c3csc(C(=O)NCc4ccccc4)c3)cn2n1 [Compound 53]
IC50 (DLK): 280 nM
IC50 (LZK): 6100 nM

Cc1sc(C(=O)NC2CCCCC2)cc1-c1ccc2nc(N)nn2c1 [Compound 312]
IC50 (DLK): > 30000 nM
IC50 (LZK): > 30000 nM

C[C@H](NC(=O)c1cc(-c2ccc3nc(N)nn3c2)cs1)c1ccccc1F [Compound 359]
IC50 (DLK): 160 nM
IC50 (LZK): > 30000 nM

COc1ccc2c(c1)nc(CNC(=O)c1cc(-c3ccc4nc(N)nn4c3)cs1)n2C [Compound 260]
IC50 (DLK): 1200 nM
IC50 (LZK): > 30000 nM

CCC[C@H](NC(=O)c1cc(-c2ccc3nc(N)nn3c2)cs1)c1ccccc1 [Compound 321]
IC50 (DLK): 67 nM
IC50 (LZK): 3700 nM

CC[C@H](NC(=O)c1cc(-c2cc(C(=O)N[C@H]3CCOC3)c3nc(N)nn3c2)cs1)c1ccc(F)cc1 [Compound 115]
IC50 (DLK): 1.3 nM
IC50 (LZK): 41 nM

CC(C)c1csc(CNC(=O)c2cc(-c3ccc4nc(N)nn4c3)cs2)n1 [Compound 249]
IC50 (DLK): 745 nM
IC50 (LZK): 7600 nM

CC[C@H](NC(=O)c1cc(-c2csc(C(=O)NCc3ccc(F)cc3)c2)cn2nc(N)nc12)C(F)(F)F [Compound 144-4]
IC50 (DLK): 800 nM
IC50 (LZK): 2500 nM

Cc1c(-c2ccc3nc(N)nn3c2)csc1C(=O)NCc1ccc(F)cc1 [Compound 352]
IC50 (DLK): 1000 nM
IC50 (LZK): > 30000 nM

CCC(C)c1nnc(-c2cc(-c3csc(C(=O)N[C@@H](C)c4ccc(F)cc4)c3)cn3nc(N)nc23)s1 (stereo partly shown) [Compound 399]
IC50 (DLK): 1760 nM
IC50 (LZK): 3950 nM

Nc1nc2ccc(-c3csc(C(=O)NC4CCCC(C(F)(F)F)C4)c3)cn2n1 (stereo not shown) [Compound 176]
IC50 (DLK): 1000 nM
IC50 (LZK): > 30000 nM

Nc1nc2ccc(-c3csc(C(=O)NCc4ccc(OCCN5CCOCC5)cc4)c3)cn2n1 [Compound 281]
IC50 (DLK): 1500 nM
IC50 (LZK): > 30000 nM

Cn1ccc(CNC(=O)c2cc(-c3ccc4nc(N)nn4c3)cs2)n1 [Compound 242]
IC50 (DLK): 1800 nM
IC50 (LZK): 19000 nM

COc1cccc(C(CCO)NC(=O)c2cc(-c3ccc4nc(N)nn4c3)cs2)c1 (stereo not shown) [Compound 290]
IC50 (DLK): 620 nM
IC50 (LZK): 7400 nM

Nc1nc2c(C(=O)N[C@H](CO)C(F)(F)F)cc(-c3csc(C(=O)NCc4ccc(F)cc4)c3)cn2n1 [Compound 111]
IC50 (DLK): 44 nM
IC50 (LZK): 290 nM

Nc1nc2ccc(-c3csc(C(=O)NCc4cccc(OC(F)F)c4)c3)cn2n1 [Compound 195]
IC50 (DLK): 480 nM
IC50 (LZK): 8800 nM

C[C@H](NC(=O)c1cc(-c2cc(C(=O)NC3CNC(=O)C3)c3nc(N)nn3c2)cs1)c1ccccc1 (mixture of isomers) [Compound 29]
IC50 (DLK): 2.8 nM
IC50 (LZK): 60 nM

CC(C)NC(=O)c1cc(-c2csc(C(=O)N[C@H](C)c3ccc(F)cc3)c2)cc2nc(N)nn12 [Compound 153]
IC50 (DLK): 32 nM
IC50 (LZK): 280 nM

Nc1nc2ccc(-c3csc(C(=O)NC4CC4)c3)cn2n1 [Compound 172]
IC50 (DLK): 2600 nM
IC50 (LZK): > 30000 nM

CC(C)(C)NC(=O)c1cc(-c2csc(C(=O)NCc3nc4ccccc4o3)c2)cn2nc(N)nc12 [Compound 23]
IC50 (DLK): 300 nM
IC50 (LZK): 630 nM

Nc1nc2ccc(-c3csc(C(=O)Nc4ccccc4CO)c3)cn2n1 [Compound 289]
IC50 (DLK): 2600 nM
IC50 (LZK): 2000 nM

CCNC(=O)c1cc(-c2csc(C(=O)NCc3ccc(F)cc3)c2)cc2nc(N)nn12 [Compound 157]
IC50 (DLK): 180 nM
IC50 (LZK): 870 nM

COc1ccc(CNC(=O)c2cc(-c3ccc4nc(N)nn4c3)cs2)cc1OC [Compound 202]
IC50 (DLK): 820 nM
IC50 (LZK): > 30000 nM

Nc1nc2cc(-c3csc(C(=O)NCc4ccccc4)c3)ccn2n1 [Compound 365]
IC50 (DLK): 500 nM
IC50 (LZK): 11000 nM

C[C@H]1CCC[C@H](NC(=O)c2cc(-c3ccc4nc(N)nn4c3)cs2)C1 (single isomer, unassigned) [Compound 199]
IC50 (DLK): 1200 nM
IC50 (LZK): > 30000 nM

CN1C2CCC1CC(NC(=O)c1cc(-c3ccc4nc(N)nn4c3)cs1)C2 (stereo not shown) [Compound 201]
IC50 (DLK): 2800 nM
IC50 (LZK): > 30000 nM

CC[C@H](C)NC(=O)c1cc(-c2csc(C(=O)NCc3ccccc3)c2)cn2nc(N)nc12 [Compound 87]
IC50 (DLK): 11 nM
IC50 (LZK): 48 nM

C[C@H](NC(=O)c1cc(-c2ccc3nc(N)nn3c2)c(F)s1)c1ccc(F)cc1 [Compound 362]
IC50 (DLK): 8200 nM
IC50 (LZK): 23000 nM

COC(=O)c1cccc(CNC(=O)c2cc(-c3ccc4nc(N)nn4c3)cs2)c1 [Compound 280]
IC50 (DLK): 250 nM
IC50 (LZK): 23000 nM

Nc1nc2ccc(-c3csc(C(=O)NCc4ccc(CN5CCCC5=O)cc4)c3)cn2n1 [Compound 328]
IC50 (DLK): 400 nM
IC50 (LZK): 8200 nM

CC[C@H](NC(=O)c1cc(-c2cc(C(=O)N[C@@H](C)COC)c3nc(N)nn3c2)cs1)c1ccccc1 [Compound 81]
IC50 (DLK): 10 nM
IC50 (LZK): 140 nM

CCOc1cccc(CNC(=O)c2cc(-c3ccc4nc(N)nn4c3)cs2)c1 [Compound 191]
IC50 (DLK): 320 nM
IC50 (LZK): > 30000 nM

C[C@@H](CO)NC(=O)c1cc(-c2csc(C(=O)NC3CCCCC3)c2)cn2nc(N)nc12 [Compound 39]
IC50 (DLK): 37.5 nM
IC50 (LZK): 590 nM

Nc1nc2ccc(-c3csc(C(=O)NCc4ccc(Cl)cc4)c3)cn2n1 [Compound 225]
IC50 (DLK): 710 nM
IC50 (LZK): 6950 nM

COC[C@H](C)NC(=O)c1cc(-c2ccc3nc(N)nn3c2)cs1 [Compound 339]
IC50 (DLK): 2300 nM
IC50 (LZK): > 30000 nM

COc1cccc(CNC(=O)c2cc(-c3cc(C(F)(F)F)c4nc(N)nn4c3)cs2)c1 [Compound 380]
IC50 (DLK): 1100 nM
IC50 (LZK): > 30000 nM

Nc1nc2ccc(-c3csc(C(=O)NC4(c5ccc(F)cc5)CCCC4)c3)cn2n1 [Compound 310]
IC50 (DLK): 51 nM
IC50 (LZK): 17000 nM

CNC(=O)c1cc(-c2csc(C(=O)NCc3ccccc3)c2)cn2nc(N)nc12 [Compound 10]
IC50 (DLK): 120 nM
IC50 (LZK): 990 nM

CC(C)NC(=O)c1cc(-c2csc(C(=O)NC3CC(C)(C)Oc4ccccc43)c2)cn2nc(N)nc12 (stereo not shown) [Compound 121]
IC50 (DLK): 17 nM
IC50 (LZK): 520 nM

CCNS(=O)(=O)c1cc(-c2csc(C(=O)N[C@@H](C)c3ccc(F)cc3)c2)cn2nc(N)nc12 [Compound 385]
IC50 (DLK): 11000 nM
IC50 (LZK): > 30000 nM

CC[C@H](C)NC(=O)c1cc(-c2csc(C(=O)N[C@@H](COC)c3ccc(F)cc3)c2)cc2nc(N)nn12 [Compound 159]
IC50 (DLK): 2.9 nM
IC50 (LZK): 16 nM

CC[C@H](NC(=O)c1cc(-c2cc(C(=O)N[C@@H]3CCOC3)c3nc(N)nn3c2)cs1)c1ccccc1 [Compound 104]
IC50 (DLK): 1.7 nM
IC50 (LZK): 30.5 nM

CC(NC(=O)c1cc(-c2ccc3nc(N)nn3c2)cs1)c1cnn(C)c1 (stereo not shown) [Compound 330]
IC50 (DLK): 640 nM
IC50 (LZK): 12000 nM

Cc1sc(C(=O)NCc2ccc(F)cc2)cc1-c1ccc2nc(N)nn2c1 [Compound 305]
IC50 (DLK): > 30000 nM
IC50 (LZK): > 30000 nM

Nc1nc2ccc(-c3csc(C(=O)NCc4cccc(C(=O)O)c4)c3)cn2n1 [Compound 285]
IC50 (DLK): 1700 nM
IC50 (LZK): 20000 nM

C[C@@H](CO)NC(=O)c1cc(-c2ccc3nc(N)nn3c2)cs1 [Compound 345]
IC50 (DLK): 2300 nM
IC50 (LZK): > 30000 nM

C[C@H](NC(=O)c1cc(-c2cc(C(=O)NC3CCNC3)c3nc(N)nn3c2)cs1)c1ccccc1 (mixture of isomers) [Compound 34]
IC50 (DLK): 55 nM
IC50 (LZK): 880 nM

Nc1nc2ccc(-c3csc(C(=O)NC4COc5ccc(F)cc54)c3)cn2n1 (stereo not shown) [Compound 306]
IC50 (DLK): 130 nM
IC50 (LZK): 2500 nM

CC(C)Oc1cccc(CNC(=O)c2cc(-c3ccc4nc(N)nn4c3)cs2)c1 [Compound 196]
IC50 (DLK): 350 nM
IC50 (LZK): 9490 nM

COc1cccc(CNC(=O)c2cc(-c3cc(C(=O)NC4CCNC4)c4nc(N)nn4c3)cs2)c1 (stereo not shown) [Compound 37]
IC50 (DLK): 220 nM
IC50 (LZK): 1250 nM

C[C@H]1CCC[C@H](NC(=O)c2cc(-c3ccc4nc(N)nn4c3)cs2)C1 (single isomer, unassigned) [Compound 198]
IC50 (DLK): 1250 nM
IC50 (LZK): > 30000 nM

C[C@@H](CO)NC(=O)c1cc(-c2csc(C(=O)N(C)[C@@H](C)c3ccc(F)cc3)c2)cn2nc(N)nc12 [Compound 110]
IC50 (DLK): 82 nM
IC50 (LZK): 470 nM

COc1cccc(CNC(=O)c2cc(-c3cc(C(=O)NC(C)(C)C)c4nc(N)nn4c3)cs2)c1 [Compound 13]
IC50 (DLK): 34 nM
IC50 (LZK): 140 nM

CC(NC(=O)c1cc(-c2ccc3nc(N)nn3c2)cs1)c1nc2ccccc2n1C (stereo not shown) [Compound 335]
IC50 (DLK): 140 nM
IC50 (LZK): 3500 nM
